# Measured values: patent publication US8637525B2, “Compounds for the reduction of beta-amyloid production” (Bristol-Myers Squibb Company, priority 2009, dated 2014)
# pIC50: −log10 of the molar value.
# System: Aβ1-42 production
# Test: Cellular assay for inhibition of Aβ1-42 production (H4 APP751 SWE clone 8.20)
# Format: cell-based
# Conditions: 19 h, H4 APP751 SWE clone 8.20 cells, 19 h incubation; class symbols; read-out: Activity Rating (Aβ42 cellular IC50)
# Method in brief: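 H4 cells stably expressing Swedish-mutant APP751 incubated with compound 19 h at 37 °C, 5% CO2. Secreted Aβ42 detected by HTRF with Aβ42 neoepitope antibody 565 (0.8 ng/well) and N-terminal 26D6 (75 ng/well), overnight at 4 °C. IC50 obtained by curve fitting.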
row,pIC50,SMILES
1,6.00 to 7.00,"COc1cc(Nc2nc3c(c(N4CCC(F)C4)n2)COCC3c2ccc(F)cc2)ccc1-n1cnc(Cl)c1 (stereo in doubt) [Example 57B, N-(4-(4-chloro-1H-imidazol-1-yl)-3-methoxyphenyl)-8-(4-fluorophenyl)-4-((R)-3-fluoropyrrolidin-1-yl)-7,8-dihydro-5H-pyrano[4,3-d]pyrimidin-2-amine]"
2,8.00 to 8.82,"COc1cc(Nc2nc3c(c(N4CCC(F)C4)n2)COCC3c2ccc(F)cc2)ccc1-n1cnc(Cl)c1 (stereo in doubt) [Example 58A, N-(4-(4-chloro-1H-imidazol-1-yl)-3-methoxyphenyl)-8-(4-fluorophenyl)-4-((S)-3-fluoropyrrolidin-1-yl)-7,8-dihydro-5H-pyrano[4,3-d]pyrimidin-2-amine]"
3,7.00 to 8.00,"COc1cc(Nc2nc3c(c(N4CCC(F)C4)n2)CCOC3c2ccc(F)cc2)ccc1-n1cnc(Cl)c1 (stereo in doubt) [Example 90A, N-(4-(4-chloro-1H-imidazol-1-yl)-3-methoxyphenyl)-8-(4-fluorophenyl)-4-((R)-3-fluoropyrrolidin-1-yl)-6,8-dihydro-5H-pyrano[3,4-d]pyrimidin-2-amine]"
4,8.00 to 8.82,"CNc1nc(Nc2ccc(-n3cnc(C)n3)c(OC)c2)nc2c1CCC2c1ccccc1 (stereo not shown) [Example 1, N2-(3-methoxy-4-(3-methyl-1H-1,2,4-triazol-1-yl)phenyl)-N4-methyl-7-phenyl-6,7-dihydro-5H-cyclopenta[d]pyrimidine-2,4-diamine]"
5,8.00 to 8.82,"CNc1nc(Nc2ccc(-n3cnc(C)n3)c(F)c2)nc2c1CCC2c1ccccc1 (stereo not shown) [Example 2, N2-(3-fluoro-4-(3-methyl-1H-1,2,4-triazol-1-yl)phenyl)-N4-methyl-7-phenyl-6,7-dihydro-5H-cyclopenta[d]pyrimidine-2,4-diamine]"
6,7.00 to 8.00,"CNc1nc(Nc2ccc(-n3ncnc3C)c(F)c2)nc2c1CCC2c1ccccc1 (stereo not shown) [Example 3, N2-(3-fluoro-4-(5-methyl-1H-1,2,4-triazol-1-yl)phenyl)-N4-methyl-7-phenyl-6,7-dihydro-5H-cyclopenta[d]pyrimidine-2,4-diamine]"
7,8.00 to 8.82,"COc1cc(Nc2nc3c(c(N(C)C)n2)CCC3c2ccccc2)ccc1-n1cnc(Cl)c1 (stereo not shown) [Example 4, N^2-(4-(4-Chloro-1H-imidazol-1-yl)-3-methoxyphenyl)-N^4,N^4-dimethyl-7-phenyl-6,7-dihydro-5H-cyclopenta[d]pyrimidine-2,4-diamine]"
8,8.00 to 8.82,"CCN(C)c1nc(Nc2ccc(-n3cnc(Cl)c3)c(OC)c2)nc2c1CCC2c1ccccc1 (stereo not shown) [Example 5, N^2-(4-(4-Chloro-1H-imidazol-1-yl)-3-methoxyphenyl)-N^4-ethyl-N^4-methyl-7-phenyl-6,7-dihydro-5H-cyclopenta[d]pyrimidine-2,4-diamine]"
9,7.00 to 8.00,"COc1cc(Nc2nc3c(c(N4CCC4)n2)CCC3c2ccccc2)ccc1-n1cnc(Cl)c1 (stereo not shown) [Example 6, 4-(Azetidin-1-yl)-N-(4-(4-chloro-1H-imidazol-1-yl)-3-methoxyphenyl)-7-phenyl-6,7-dihydro-5H-cyclopenta[d]pyrimidin-2-amine]"
10,8.00 to 8.82,"COc1cc(Nc2nc(NC3CC3)c3c(n2)C(c2ccccc2)CC3)ccc1-n1cnc(Cl)c1 (stereo not shown) [Example 8, N2-(4-(4-chloro-1H-imidazol-1-yl)-3-methoxyphenyl)-N4-cyclopropyl-7-phenyl-6,7-dihydro-5H-cyclopenta[d]pyrimidine-2,4-diamine]"
11,8.00 to 8.82,"COc1cc(Nc2nc(NC(C)C)c3c(n2)C(c2ccccc2)CC3)ccc1-n1cnc(Cl)c1 (stereo not shown) [Example 10, N2-(4-(4-chloro-1H-imidazol-1-yl)-3-methoxyphenyl)-N4-isopropyl-7-phenyl-6,7-dihydro-5H-cyclopenta[d]pyrimidine-2,4-diamine]"
12,8.00 to 8.82,"CNc1nc(Nc2ccc(-n3cnc(Cl)c3)c(OC)c2)nc2c1CCC2c1ccc(F)cc1 (stereo not shown) [Example 11, N^2-(4-(4-Chloro-1H-imidazol-1-yl)-3-methoxyphenyl)-7-(4-fluorophenyl)-N^4-methyl-6,7-dihydro-5H-cyclopenta[d]pyrimidine-2,4-diamine]"
13,8.00 to 8.82,"CNc1nc(Nc2ccc(-n3ncnc3C)c(F)c2)nc2c1CCC2c1ccc(F)cc1 (stereo not shown) [Example 12, N^2-(3-Fluoro-4-(5-methyl-1H-1,2,4-triazol-1-yl)phenyl)-7-(4-fluorophenyl)-N^4-methyl-6,7-dihydro-5H-cyclopenta[d]pyrimidine-2,4-diamine]"
14,7.00 to 8.00,"COc1cc(Nc2nc3c(c(N4CC(F)(F)C4)n2)CCC3c2ccc(F)cc2)ccc1-n1cnc(Cl)c1 (stereo not shown) [Example 15, N-(4-(4-Chloro-1H-imidazol-1-yl)-3-methoxyphenyl)-4-(3,3-difluoroazetidin-1-yl)-7-(4-fluorophenyl)-6,7-dihydro-5H-cyclopenta[d]pyrimidin-2-amine]"
15,7.00 to 8.00,"COc1cc(Nc2nc3c(c(N4C[C@@H]5C[C@H]4CO5)n2)CCC3c2ccc(F)cc2)ccc1-n1cnc(Cl)c1 (stereo partly drawn) [Example 18, 4-((1S,4S)-2-oxa-5-azabicyclo[2.2.1]heptan-5-yl)-N-(4-(4-chloro-1H-imidazol-1-yl)-3-methoxyphenyl)-7-(4-fluorophenyl)-6,7-dihydro-5H-cyclopenta[d]pyrimidin-2-amine]"
16,7.00 to 8.00,COc1cc(Nc2nc3c(c(N4C[C@@H](C)O[C@@H](C)C4)n2)CCC3c2ccc(F)cc2)ccc1-n1cnc(Cl)c1 (stereo partly shown) [Example 21]
17,7.00 to 8.00,"COc1cc(Nc2nc3c(c(N4CCC(C)(N)CC4)n2)CCC3c2ccc(F)cc2)ccc1-n1cnc(Cl)c1 (stereo not shown) [Example 25, 4-(4-amino-4-methylpiperidin-1-yl)-N-(4-(4-chloro-1H-imidazol-1-yl)-3-methoxyphenyl)-7-(4-fluorophenyl)-6,7-dihydro-5H-cyclopenta[d]pyrimidin-2-amine]"
18,7.00 to 8.00,"COc1cc(Nc2nc3c(c(N4CCC(N(C)C)C4)n2)CCC3c2ccc(F)cc2)ccc1-n1cnc(Cl)c1 (stereo not shown) [Example 29, N-(4-(4-chloro-1H-imidazol-1-yl)-3-methoxyphenyl)-4-(3-(dimethylamino)pyrrolidin-1-yl)-7-(4-fluorophenyl)-6,7-dihydro-5H-cyclopenta[d]pyrimidin-2-amine]"
19,7.00 to 8.00,"COc1cc(Nc2nc3c(c(N4CCN(C)CC4)n2)CCC3c2ccc(F)cc2)ccc1-n1cnc(Cl)c1 (stereo not shown) [Example 30, N-(4-(4-chloro-1H-imidazol-1-yl)-3-methoxyphenyl)-7-(4-fluorophenyl)-4-(4-methylpiperazin-1-yl)-6,7-dihydro-5H-cyclopenta[d]pyrimidin-2-amine]"
20,6.00 to 7.00,"COc1cc(Nc2nc3c(c(N4CCNCC4)n2)CCC3c2ccc(F)cc2)ccc1-n1cnc(Cl)c1 (stereo not shown) [Example 31, N-(4-(4-chloro-1H-imidazol-1-yl)-3-methoxyphenyl)-7-(4-fluorophenyl)-4-(piperazin-1-yl)-6,7-dihydro-5H-cyclopenta[d]pyrimidin-2-amine]"
21,7.00 to 8.00,"CNC1CCN(c2nc(Nc3ccc(-n4cnc(Cl)c4)c(OC)c3)nc3c2CCC3c2ccc(F)cc2)C1 (stereo not shown) [Example 32, N-(4-(4-chloro-1H-imidazol-1-yl)-3-methoxyphenyl)-7-(4-fluorophenyl)-4-(3-(methylamino)pyrrolidin-1-yl)-6,7-dihydro-5H-cyclopenta[d]pyrimidin-2-amine]"

# Same assay, conditions: 19 h, H4 APP751 SWE clone 8.20 cells, 19 h incubation; read-out: Activity Rating (Aβ42 cellular IC50), numeric value
row,pIC50,SMILES
1,7.85,"COc1cc(Nc2nc3c(c(N4CCC(F)C4)n2)COCC3c2ccc(F)cc2)ccc1-n1cnc(Cl)c1 (stereo in doubt) [Example 57A, N-(4-(4-chloro-1H-imidazol-1-yl)-3-methoxyphenyl)-8-(4-fluorophenyl)-4-((R)-3-fluoropyrrolidin-1-yl)-7,8-dihydro-5H-pyrano[4,3-d]pyrimidin-2-amine]"
2,6.92,"COc1cc(Nc2nc3c(c(N4CCC(F)C4)n2)COCC3c2ccc(F)cc2)ccc1-n1cnc(Cl)c1 (stereo in doubt) [Example 58B, N-(4-(4-chloro-1H-imidazol-1-yl)-3-methoxyphenyl)-8-(4-fluorophenyl)-4-((S)-3-fluoropyrrolidin-1-yl)-7,8-dihydro-5H-pyrano[4,3-d]pyrimidin-2-amine]"
3,6.57,"COc1cc(Nc2nc3c(c(N4CCC(F)C4)n2)CCOC3c2ccc(F)cc2)ccc1-n1cnc(Cl)c1 (stereo in doubt) [Example 90B, N-(4-(4-chloro-1H-imidazol-1-yl)-3-methoxyphenyl)-8-(4-fluorophenyl)-4-((R)-3-fluoropyrrolidin-1-yl)-6,8-dihydro-5H-pyrano[3,4-d]pyrimidin-2-amine]"
4,8.09,"COc1cc(Nc2nc(NC3CCC3)c3c(n2)C(c2ccccc2)CC3)ccc1-n1cnc(Cl)c1 (stereo not shown) [Example 9, N2-(4-(4-chloro-1H-imidazol-1-yl)-3-methoxyphenyl)-N4-cyclobutyl-7-phenyl-6,7-dihydro-5H-cyclopenta[d]pyrimidine-2,4-diamine]"

# Same assay, conditions: H4 APP751 SWE clone 8.20 cells, 19 h incubation; class symbols; read-out: Activity Rating (Aβ42 cellular IC50)
row,pIC50,SMILES
1,8.00 to 8.82,"COc1cc(Nc2nc3c(c(N4CCC(F)C4)n2)CCOC3c2ccc(F)cc2)ccc1-n1cnc(Cl)c1 (stereo in doubt) [Example 91A, N-(4-(4-chloro-1H-imidazol-1-yl)-3-methoxyphenyl)-8-(4-fluorophenyl)-4-((S)-3-fluoropyrrolidin-1-yl)-6,8-dihydro-5H-pyrano[3,4-d]pyrimidin-2-amine]"
2,6.00 to 7.00,"COc1cc(Nc2nc3c(c(N4CCC(F)C4)n2)CCOC3c2ccc(F)cc2)ccc1-n1cnc(Cl)c1 (stereo in doubt) [Example 91B, N-(4-(4-chloro-1H-imidazol-1-yl)-3-methoxyphenyl)-8-(4-fluorophenyl)-4-((S)-3-fluoropyrrolidin-1-yl)-6,8-dihydro-5H-pyrano[3,4-d]pyrimidin-2-amine]"
3,8.00 to 8.82,"CNc1nc(Nc2ccc(-n3ncnc3C)c(F)c2)nc2c1CCC2c1ccc(F)cc1 (stereo not shown) [Example 26, N^2-(3-fluoro-4-(5-methyl-1H-1,2,4-triazol-1-yl)phenyl)-7-(4-fluorophenyl)-N^4-methyl-6,7-dihydro-5H-cyclopenta[d]pyrimidine-2,4-diamine]"
